Assays:
[1] = test system: Lewis lung carcinoma lung metastases; test: Lung metastases of Lewis lung carcinoma; type: in vivo, mouse (male C57BL); parameters: Lung Metastases: unit not given here
Procedure: The Lewis lung tumor was carried in male C57BL mice (Taconic Laboratories, Germantown, N.Y.). For the experiments, 2×10^6 tumor cells prepared from a brei of several stock tumors were implanted subctaneously into the legs of male mice aged 8-10 weeks. […] Animals bearing Lewis lung tumors were treated daily with intraperitoneal Mino (10 mg/kg), Diflun (15 mg/kg) or Sulin (15 mg/kg) on days 4-18 following tumor implantation. When the tumors had reached a volume of approximately 100 mm^3 (day 7 after tumor cell implantation), cytotoxic therapy was initiated.
Therapy consisted of treatment with an antitumor alkylating agent, an antitumor antimetabolite, a non-steroidal anti-inflammatory drug (NSAID) and/or UPHS. […] CTX therapy consisted of three successive 150 mg/kg CTX doses administered by intraperitoneal injections on days 7, 9 and 11. BCNU therapy consisted of three successive 15 mg/Kg BCNU doses administered by intraperitoneal injections on days 7, 9 and 11. Therapy with the antimetabolite 5-fluorouracil(5-FU) consisted of 4 successive 40 mg/kg 5-FU doses administered by intraperitoneal injections daily on days 7 to 11. The 5-FU was purchased from Sigma Chemical Co., St. Louis, Mo. Fourteen doses of 10 mg/kg of NSAID were administered daily by intraperitoneal injections on days 4 to 18. UPHS was injected into the tail vein in 8 ml/kg doses daily on days 7-11. […]

[2] = test system: bone marrow granulocyte-macrophage colony forming units (CFU-GM); test: Bone marrow toxicity, CFU-GM colony forming assay; type: in vivo, mouse; conditions: drug + UPHS vs drug alone; PAM across entire dosage range
Procedure: The procedures and materials of Example I were employed, except as noted. In this Example, tumors were allowed to grow to approximately 100 mm^3 in volume, which took about one week after tumor cell implantation. At this time, 0.3 ml of UPHS was injected via the tail vein. Immediately afterward, PAM was administered by intraperitoneal injection. The animals were then allowed to breathe air or were placed in a circulating atmosphere of carbogen for 6 hours and then removed to air. The mice were sacrificed 24 hours after treatment to allow for full expression of drug cytotoxicity and repair of potentially lethal damage. The tumors were excised under sterile conditions and single cell suspensions were prepared for a colony forming assay. […] One week later, the plates were stained with crystal violet and colonies of more than 50 cells were counted.
Bone marrow toxicity was determined as follows. […] Colonies of at least 50 cells were scored on an acculite colony counter (Fisher, Springfield, N.J.). The results from three experiments, in which each group was measured in triplicate, were averaged. […]

FSaIIC tumor cells = test: FSaIIC tumor excision / colony forming assay (tumor cell killing); type: in vivo, mouse; conditions: for FSaIIC cell killing by drug, dose dependence: drug alone, increasing dose; for Enhancement of tumor cell killing by UPHS at higher drug doses: higher doses of drug + UPHS vs drug alone
Procedure: The procedures and materials of Example I were employed, except as noted. In this Example, tumors were allowed to grow to approximately 100 mm^3 in volume, which took about one week after tumor cell implantation. At this time, 0.3 ml of UPHS was injected via the tail vein. Immediately afterward, PAM was administered by intraperitoneal injection. The animals were then allowed to breathe air or were placed in a circulating atmosphere of carbogen for 6 hours and then removed to air. The mice were sacrificed 24 hours after treatment to allow for full expression of drug cytotoxicity and repair of potentially lethal damage. The tumors were excised under sterile conditions and single cell suspensions were prepared for a colony forming assay. See Teicher, B. A. et al., "Approaches to Defining the Mechanism of Fluosol-DA 20%/Carbogen Enhancement of Melphalan Antitumor Activity", Cancer Res. 47:513-518 (1987); Teicher, B. A. et al., "Differential Enhancement of Melphalan Cytotoxicity in Tumor and Normal Tissue by Fluosol-DA and Oxygen Breathing", Int. J. Cancer 36:585-589 (1985); Teicher, B. A. et al., "Effects of Various Oxygenation Conditions on the Enhancement by Fluosol-DA of Melphalan Antitumor Activity", Cancer Res. 47:5036-5041 (1987); Teicher, B. A. and S. A. Holden, "A Survey of the Effect of Adding Fluosol-DA 20%/O2 to Treatment with Various Chemotherapeutic Agents", Cancer Treat. Rep. 71:173-177 (1987), Teicher, B. A. et al., "Effect of Various Oxygenation Conditions and Fluosol-DA on Cancer Chemotherapeutic Agents", Biomat., Art. Cells and Art. Organs 16:533-546 (1988). One week later, the plates were stained with crystal violet and colonies of more than 50 cells were counted.
The result for the tumor excision assays and bone marrow toxicity tests with PAM are plotted in FIG. 1 wherein the surviving fraction +SE of cells from the treated groups are compared to untreated controls.
The procedures and materials of Example II were employed except that CTX was administered instead of PAM.

FSaIIC fibrosarcoma [3] = conditions: cited from earlier work
FSaIIC fibrosarcoma [4] = test: FSaIIC fibrosarcoma tumor growth delay; type: in vivo, mouse (male C3H/FeJ mice); conditions: PAM 10 mg/kg + Fluosol-DA, carbogen 1 hour

Structure (SMILES) | Lung Metastases ([1]; WITH UPHS) | Lung Metastases (% Large) ([1]; WITH UPHS) [%] | Lung Metastases ([1]; WITHOUT UPHS) | Lung Metastases (% Large) ([1]; WITHOUT UPHS) [%] | Increase in bone marrow CFU-GM killing / toxicity by addition of UPHS [2] | Increase in killing of FSaIIC cells by addition of UPHS (FSaIIC tumor cells; CTX 100 mg/kg + UPHS vs CTX alone) [fold] | Greater kill of FSaIIC tumor cells with combined treatment (FSaIIC tumor cells; CTX 500 mg/kg (highest dose) + UPHS vs CTX alone) | FSaIIC cell killing by drug, dose dependence (FSaIIC tumor cells) | Enhancement of tumor cell killing by UPHS at higher drug doses (FSaIIC tumor cells) | Duration of carbogen breathing necessary for significant enhancement of growth delay (FSaIIC fibrosarcoma [3]; FSaIIC, CTX) | Increase in tumor cell killing by addition of UPHS (FSaIIC tumor cells; PAM 10 mg/kg + UPHS vs PAM alone) [fold] | Tumor growth delay, with Fluosol-DA and carbogen (FSaIIC fibrosarcoma [4]) | Effect of extending carbogen breathing to 6 hours on tumor growth delay (FSaIIC fibrosarcoma [3]; PAM + Fluosol-DA, carbogen 6 hours) | Tumor growth delay, PAM prepared in Fluosol-DA as a vehicle (FSaIIC fibrosarcoma [3]; PAM in Fluosol-DA vehicle, carbogen breathing)
O=NN(CCCl)C(=O)NCCCl [BCNU, N,N-bis(2-chloroethyl)-N-nitrosourea] | 9 | 61 | 15.5 | 53 | – | – | – | – | – | – | – | – | – | –
N.N.[Cl][Pt][Cl] [CDDP, cis-diaminodichloroplatinum(II)] | 13 | 40 | 13 | 58 | – | – | – | – | – | – | – | – | – | –
O=P1(N(CCCl)CCCl)NCCCO1 (centres unmarked) [CTX, Cyclophosphamide] | 8 | 40 | 12 | 40 | 2-3 fold | ~20 | about 9 fold | killed increasing numbers of FSaIIC cells with increasing doses | the differential between tumor cell kill by CTX alone and CTX plus UPHS decreased as the dose of CTX was increased | Six hours of carbogen breathing are necessary to obtain a significant enhancement in the growth delay | – | – | – | –
N[C@@H](Cc1ccc(N(CCCl)CCCl)cc1)C(=O)O [PAM, Melphalan] | 10 | 50 | 13 | 48 | 3 fold | – | – | killed FSaIIC cells in a log-linear manner with increasing dose | the enhancement in tumor cell killing with the combination treatment disappeared | – | ~10 | about 9.5 days | did not alter the tumor growth delay | about 29.5 days

Reference: patent US5679638A, “Method for treating a tumor with a chemotherapeutic agent” (Biopure Corporation, priority 1993, dated 1997)
